# According to patent US9663478B2, “Benzotriazine oxides as drugs targeting Mycobacterium tuberculosis” (priority 2011, dated 2017):
# Like-named read-outs stand apart in the source and are kept apart here.
# What was measured:
# Mtb H37Rv = assay: TB MIC - SRI, resazurin-based microplate assay; type: cell-based, Mycobacterium tuberculosis; conditions: for MIC: Mycobacterium tuberculosis, H37RV
# [1] = test system: Mycobacterium smegmatis ATCC 10143; assay: Spectrum of antimicrobial activity; type: cell-based
# [2] = test system: Klebsiella pneumoniae ATCC 700721; assay: Spectrum of antimicrobial activity; type: cell-based
# [3] = test system: Klebsiella pneumoniae ATCC 43816; assay: Spectrum of antimicrobial activity; type: cell-based
# [4] = test system: Enterobacter aerogenes ATCC 29751; assay: Spectrum of antimicrobial activity; type: cell-based
# [5] = test system: Enterococcus fecalis ATCC 29212; assay: Spectrum of antimicrobial activity; type: cell-based
# [6] = test system: Escherichia coli pKM101 SRI Collection; assay: Spectrum of antimicrobial activity; type: cell-based
# [7] = test system: Salmonella typhimurium -Hisg46 SRI Collection; assay: Spectrum of antimicrobial activity; type: cell-based
# [8] = test system: Salmonella choleraesuis ATCC 13311; assay: Spectrum of antimicrobial activity; type: cell-based
# [9] = Solubility, shake-flask method; type: physicochemical; conditions: 0.9% saline solution at pH 7.4, triplicate
# Protocol: The solubility of these two compounds was measured in triplicate using the shake-flask method in a 0.9% saline solution at pH 7.4. Both 8a and 20q had acceptable solubilities of 1.35 mg/mL and 0.28 mg/mL, respectively.
# Compounds were ground into a fine powders using a mortar and pestle and added to a 25 mL glass Erlenmeyer flask with 5 mL of a 0.9% saline solution at pH 7.4. Approximately 20 mg of compound was added to each flask to ensure saturation. The flasks were then vigorously stirred using a magnetic stir bar at 25° C. for 48 hours. The samples were then filtered through a Whatman PVDF membrane (0.45 μm pore size) syringe filter. The concentration of compound in the supernatant was then measured using HPLC quantitation at the maximum absorption wavelength for each compound.
# [10] = Plasma pharmacokinetics in female mice after oral administration; type: in vivo, mouse; conditions: female mice, oral, 100 mg/kg
# Protocol: In order to validate BTOs as a new lead series for the treatment of TB, we also evaluated their systemic exposure in the mouse after oral administration. A single dose (100 mg/kg) of 8a and 20q were administered to mice in order to profile the pharmacokinetics for the BTOs (Table 7). […] The elimination half-life was for each compound was shorter than our ideal target values, but the Tmax values indicate that they are rapidly absorbed after oral administration (FIGURE).
# All pharmacokinetic studies were performed in accordance with SRI International's animal care policies in an AAALAC and OLAW accredited facility. The procedure for the pharmacokinetics studies followed a previously described method.^55 Briefly, the plasma pharmacokinetics of selected BTO derivatives were determined in female CD1 mice after administration of a single dose (100 mg/kg) by oral gavage. Blood was collected from three mice per time point at 5, 15, 30, and 60 min and 2, 4, 6, 8, and 24 h after dose administration. Means and standard deviations were calculated for the plasma drug concentrations at each time point. Pharmacokinetic analysis was performed using non compartmental methods (WinNonlin® Professional, Version 5.2, Pharsight Corp, Mountain View, Calif.). The following parameters were calculated: time to maximum plasma concentration (Tmax), maximum plasma concentration (Cmax), maximum plasma concentration extrapoloated to time 0 (C0), area under the plasma concentration-time curve to the last time point (AUClast) and to infinity (AUCinf).
# Vero cells = assay: Cytotoxicity against Vero cells (Cell Titer-Glo); conditions: 72 h; Tables 1-4 and text
smiles,measurement,setting,value
"[O-][n+]1nc(N2CCCC2)[n+]([O-])c2cc3c(cc21)CCC3 [Compound 20q, 3-(pyrrolidin-1-yl)-7,8-dihydro-6H-indeno[5,6-e][1,2,4]triazine 1,4-dioxide]",MIC,"Mtb H37Rv; read-out: MIC, H37Rv, Table 5",0.62 µg/mL
same,MIC,"Mtb H37Rv; read-out: TB MIC - SRI, Tables 1-4 and text",0.31 µg/mL
same,"Antimicrobial activity, Mtb H37Rv","Mtb H37Rv; source CSU, SI Table 1",0.31 µg/mL
same,"Antimicrobial activity, Mycobacterium smegmatis",[1],2.5 µg/mL
same,"Antimicrobial activity, Klebsiella pneumoniae",[2],>32 µg/mL
same,"Antimicrobial activity, Klebsiella pneumoniae",[3],>32 µg/mL
same,"Antimicrobial activity, Enterobacter aerogenes",[4],>32 µg/mL
same,"Antimicrobial activity, Enterococcus fecalis",[5],>32 µg/mL
same,"Antimicrobial activity, Escherichia coli pKM101",[6],>32 μg/mL
same,"Antimicrobial activity, Salmonella typhimurium -Hisg46",[7],>32 µg/mL
same,"Antimicrobial activity, Salmonella choleraesuis",[8],>32 µg/mL
same,solubility,[9],280 µg/mL
same,AUCinf,[10],11248 ng·h/mL
same,AUClast,[10],11219 ng·h/mL
same,Cmax,[10],9767 ng/mL
same,Tmax,[10],0.25 h
same,t1/2,[10],1.9 h
same,Vero Tox CC50,Vero cells,25 µg/mL
